In ChEMBL document CHEMBL5380817, “Discovery of LL-K8-22: A Selective, Durable, and Small-Molecule Degrader of the CDK8-Cyclin C Complex” (J Med Chem, 2023):
Active and inactive are the calls of the source. The rule behind the calls is not given here.

Tests used:
[1] = target: Cyclin-dependent kinase 19 (Homo sapiens) (UniProt Q9BWU1); assay: Hydrophobic-tagging degradation activity at CDK19 in human MDA-MB-468 cells assessed as degradation of CDK19 protein at 5 uM incubated for 12 hrs by DIA-based proteomic analysis; assay type: cell-based
[2] = target: T1, CDK8/Cyclin C (Homo sapiens) (UniProt P49336+P24863); assay: Hydrophobic-tagging degradation activity at CDK8/Cyclin C in human MDA-MB-468 cells assessed as downregulation of E2F gene expression level at 4 uM incubated for 24 hrs by qPT-PCR analysis; assay type: cell-based
Cyclin-A2 (Homo sapiens) = Cyclin-A2 (Homo sapiens) (UniProt P20248); assay: PROTAC activity at Cyclin A2 in human MDA-MB-468 cells assessed as degradation of Cyclin A2 at 0.625 to 10 uM incubated for 24 hrs by Western blotting analysis; assay type: cell-based; conditions: dose 0.625-10 µM
[3] = target: Cyclin-dependent kinase 8 (Homo sapiens, UniProt P49336); assay: Hydrophobic-tagging degradation activity at CDK8 in human MDA-MB-468 cells assessed as degradation of CDK8 protein at 5 uM incubated for 12 hrs by DIA-based proteomic analysis; assay type: cell-based
[4] = target: T1, CDK8/Cyclin C (Homo sapiens); assay: Hydrophobic-tagging degradation activity at CDK8/Cyclin C in human MDA-MB-468 cells assessed as effect on mRNA expression level at 1.1 to 10 uM by […] analysis; assay type: cell-based; conditions: dose 1.1-10 µM
[5] = target: T1, CDK8/Cyclin C (Homo sapiens); assay: Hydrophobic-tagging degradation activity at CDK8/Cyclin C in human MDA-MB-468 cells assessed as downregulation of MYC gene expression level at 4 uM incubated for 24 hrs by qPT-PCR analysis; assay type: cell-based
[6] = target: Cyclin-dependent kinase 19 (Homo sapiens) (UniProt Q9BWU1); assay: Hydrophobic-tagging degradation activity at CDK19 in human MDA-MB-468 cells assessed as degradation of CDK19 at 0.625 to 10 uM incubated for 24 hrs by Western blotting analysis; assay type: cell-based; conditions: dose 0.625-10 µM
[7] = target: T1, CDK8/Cyclin C (Homo sapiens); assay: Hydrophobic-tagging degradation activity at CDK8/Cyclin C in human MDA-MB-468 cells assessed as protein degradation at 5 uM incubated for 2 to 72 hrs by Western blotting analysis; assay type: cell-based; conditions: time 2-72 hrs, TDE = time-dependent effect
MDA-MB-231 = assay: Antiproliferative activity against human MDA-MB-231 cells assessed as reduction in cell viability incubated for 4 days by Celltiter glo luminescent assay; assay type: functional, cell-based; conditions: time 4.0 day
[8] = target: Cyclin-dependent kinase 2 (Homo sapiens) (UniProt P24941); assay: PROTAC activity at CDK2 in human MDA-MB-468 cells assessed as degradation of CDK2 at 0.625 to 10 uM incubated for 24 hrs by Western blotting analysis; assay type: cell-based; conditions: dose 0.625-10 µM
Cyclin-C (Homo sapiens) = Cyclin-C (Homo sapiens) (UniProt P24863); assay: PROTAC activity at Cyclin C in human MDA-MB-468 cells assessed as degradation of Cyclin C at 0.625 to 10 uM incubated for 24 hrs by Western blotting analysis; assay type: cell-based; conditions: dose 0.625-10 µM
Cyclin-K (Homo sapiens) = Cyclin-K (Homo sapiens) (UniProt O75909); assay: PROTAC activity at Cyclin K in human MDA-MB-468 cells assessed as degradation of Cyclin K at 0.625 to 10 uM incubated for 24 hrs by Western blotting analysis; assay type: cell-based; conditions: dose 0.625-10 µM
[9] = target: T1, CDK8/Cyclin C (Homo sapiens); assay: Hydrophobic-tagging degradation activity at CDK8/Cyclin C in human MDA-MB-468 cells assessed as downregulation of C-terminal RNA polymerase II phosphorylation at serine 2 at 2 to 8 uM incubated for 24 hrs by Western blotting analysis; assay type: cell-based; conditions: dose 2-8 µM
[10] = target: T1, CDK8/Cyclin C (Homo sapiens); assay: Hydrophobic-tagging degradation activity at CDK8/Cyclin C in human MDA-MB-468 cells assessed as protein degradation at 10 uM incubated for 2 to 20 hrs in presence of cycloheximide by Western blotting analysis; assay type: cell-based; conditions: time 2-20 hrs, TDE = time-dependent effect
[11] = target: T1, CDK8/Cyclin C (Homo sapiens); assay: Hydrophobic-tagging degradation activity at CDK8/Cyclin C in human MDA-MB-468 cells assessed as effect on mRNA expression level at 4 uM incubated for 24 hrs by […] analysis; assay type: cell-based
[12] = target: T1, CDK8/Cyclin C (Homo sapiens); assay: Hydrophobic-tagging degradation activity at CDK8/Cyclin C in human MDA-MB-468 cells assessed as downregulation of C-terminal RNA polymerase II phosphorylation at serine 5 at 2 to 8 uM incubated for 24 hrs by Western blotting analysis; assay type: cell-based; conditions: dose 2-8 µM
[13] = target: G2/mitotic-specific cyclin-B1 (Homo sapiens) (UniProt P14635); assay: PROTAC activity at Cyclin B1 in human MDA-MB-468 cells assessed as degradation of Cyclin B1 at 0.625 to 10 uM incubated for 24 hrs by Western blotting analysis; assay type: cell-based; conditions: dose 0.625-10 µM
[14] = target: T1, CDK8/Cyclin C (Homo sapiens); assay: Hydrophobic-tagging degradation activity at CDK8/Cyclin C in human MDA-MB-468 cells assessed as downregulation of Rb phosphorylation at 2 to 8 uM incubated for 24 hrs by Western blotting analysis; assay type: cell-based; conditions: dose 2-8 µM
[15] = target: Cyclin-dependent kinase 9 (Homo sapiens) (UniProt P50750); assay: Hydrophobic-tagging degradation activity at CDK9 in human MDA-MB-468 cells assessed as degradation of CDK9 at 0.625 to 10 uM incubated for 24 hrs by Western blotting analysis; assay type: cell-based; conditions: dose 0.625-10 µM
[16] = target: Cyclin-dependent kinase 1 (Homo sapiens) (UniProt P06493); assay: Hydrophobic-tagging degradation activity at CDK1 in human MDA-MB-468 cells assessed as degradation of CDK1 at 10 uM incubated for 24 hrs by Western blotting analysis; assay type: cell-based
MDA-MB-468 [17] = assay: Inhibition of colony formation in human MDA-MB-468 cells assessed as reduction in cell colony size at 1.25 to 20 uM incubated for 3 days by crystal violet staining based assay; assay type: functional; conditions: dose 1.25-20 µM, time 3.0 day
[18] = target: G1/S-specific cyclin-E1 (Homo sapiens) (UniProt P24864); assay: PROTAC activity at Cyclin E1 in human MDA-MB-468 cells assessed as degradation of Cyclin E1 at 0.625 to 10 uM incubated for 24 hrs by Western blotting analysis; assay type: cell-based; conditions: dose 0.625-10 µM
[19] = target: T1, CDK8/Cyclin C (Homo sapiens); assay: Hydrophobic-tagging degradation activity at CDK8/Cyclin C in human MDA-MB-468 cells assessed as downregulation of […] phosphorylation at Tyr701 residue at 2 to 8 uM incubated for 24 hrs by Western blotting analysis; assay type: cell-based; conditions: dose 2-8 µM
[20] = target: T1, CDK8/Cyclin C (Homo sapiens); assay: Hydrophobic-tagging degradation activity at CDK8/Cyclin C in human HCT-116 cells assessed as protein degradation at 0.75 to 20 uM incubated for 48 hrs by Western blotting analysis; assay type: cell-based; conditions: dose 0.75-20 µM
[21] = target: T1, CDK8/Cyclin C (Homo sapiens); assay: Hydrophobic-tagging degradation activity at CDK8/Cyclin C in human MDA-MB-231 cells assessed as protein degradation at 1.5 to 30 uM incubated for 48 hrs by Western blotting analysis; assay type: cell-based; conditions: dose 1.5-30 µM
MDA-MB-468 [22] = assay: Antiproliferative activity against human MDA-MB-468 cells assessed as reduction in cell growth at 5 to 20 uM measured upto 5 days by Celltiter glo luminescent assay; assay type: functional, cell-based; conditions: dose 5-20 µM, time <= 5.0 day
[23] = target: Cyclin-dependent kinase 12 (Homo sapiens) (UniProt Q9NYV4); assay: PROTAC activity at CDK12 in human MDA-MB-468 cells assessed as degradation of CDK12 at 0.625 to 10 uM incubated for 24 hrs by Western blotting analysis; assay type: cell-based; conditions: dose 0.625-10 µM
Sequence of Cyclin-dependent kinase 12 (Homo sapiens) (Q9NYV4 whole entry, looked up): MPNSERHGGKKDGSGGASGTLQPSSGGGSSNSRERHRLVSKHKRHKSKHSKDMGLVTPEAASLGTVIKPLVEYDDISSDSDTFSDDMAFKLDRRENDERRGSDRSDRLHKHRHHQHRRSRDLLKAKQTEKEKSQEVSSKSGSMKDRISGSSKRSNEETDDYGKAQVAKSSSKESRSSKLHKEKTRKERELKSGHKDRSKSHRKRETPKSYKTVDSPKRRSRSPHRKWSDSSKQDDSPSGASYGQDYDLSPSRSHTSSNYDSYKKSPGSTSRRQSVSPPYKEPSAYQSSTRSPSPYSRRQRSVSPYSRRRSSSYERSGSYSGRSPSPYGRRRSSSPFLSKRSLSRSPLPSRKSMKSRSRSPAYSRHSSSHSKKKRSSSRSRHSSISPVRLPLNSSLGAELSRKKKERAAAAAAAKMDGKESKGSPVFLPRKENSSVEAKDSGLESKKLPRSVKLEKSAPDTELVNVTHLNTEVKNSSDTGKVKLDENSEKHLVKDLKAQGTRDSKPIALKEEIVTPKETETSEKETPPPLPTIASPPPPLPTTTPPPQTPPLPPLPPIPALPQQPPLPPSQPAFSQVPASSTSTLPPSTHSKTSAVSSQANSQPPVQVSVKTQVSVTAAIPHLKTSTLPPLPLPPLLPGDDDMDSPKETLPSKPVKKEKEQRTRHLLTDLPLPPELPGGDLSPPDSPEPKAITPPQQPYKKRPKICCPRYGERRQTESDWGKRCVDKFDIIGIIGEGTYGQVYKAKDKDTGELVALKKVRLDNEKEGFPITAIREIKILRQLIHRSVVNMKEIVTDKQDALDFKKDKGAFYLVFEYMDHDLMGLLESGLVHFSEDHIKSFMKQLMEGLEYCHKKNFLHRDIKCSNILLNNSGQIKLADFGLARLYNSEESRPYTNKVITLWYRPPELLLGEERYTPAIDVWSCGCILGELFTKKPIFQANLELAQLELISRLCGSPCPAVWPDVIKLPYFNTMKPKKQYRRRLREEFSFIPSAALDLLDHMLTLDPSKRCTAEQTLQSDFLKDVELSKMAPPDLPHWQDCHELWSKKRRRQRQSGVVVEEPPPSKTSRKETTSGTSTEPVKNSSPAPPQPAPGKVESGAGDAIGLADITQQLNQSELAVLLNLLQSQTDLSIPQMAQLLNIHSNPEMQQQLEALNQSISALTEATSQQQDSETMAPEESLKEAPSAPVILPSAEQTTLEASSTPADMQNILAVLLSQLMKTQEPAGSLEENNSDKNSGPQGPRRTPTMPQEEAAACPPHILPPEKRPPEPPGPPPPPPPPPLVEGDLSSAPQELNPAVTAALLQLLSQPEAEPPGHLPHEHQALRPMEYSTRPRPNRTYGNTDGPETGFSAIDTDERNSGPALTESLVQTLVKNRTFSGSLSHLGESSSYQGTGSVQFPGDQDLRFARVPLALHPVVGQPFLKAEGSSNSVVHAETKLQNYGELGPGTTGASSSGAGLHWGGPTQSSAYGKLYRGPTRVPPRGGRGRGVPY

Sequence of Cyclin-dependent kinase 19 (Homo sapiens) (Q9BWU1 whole entry): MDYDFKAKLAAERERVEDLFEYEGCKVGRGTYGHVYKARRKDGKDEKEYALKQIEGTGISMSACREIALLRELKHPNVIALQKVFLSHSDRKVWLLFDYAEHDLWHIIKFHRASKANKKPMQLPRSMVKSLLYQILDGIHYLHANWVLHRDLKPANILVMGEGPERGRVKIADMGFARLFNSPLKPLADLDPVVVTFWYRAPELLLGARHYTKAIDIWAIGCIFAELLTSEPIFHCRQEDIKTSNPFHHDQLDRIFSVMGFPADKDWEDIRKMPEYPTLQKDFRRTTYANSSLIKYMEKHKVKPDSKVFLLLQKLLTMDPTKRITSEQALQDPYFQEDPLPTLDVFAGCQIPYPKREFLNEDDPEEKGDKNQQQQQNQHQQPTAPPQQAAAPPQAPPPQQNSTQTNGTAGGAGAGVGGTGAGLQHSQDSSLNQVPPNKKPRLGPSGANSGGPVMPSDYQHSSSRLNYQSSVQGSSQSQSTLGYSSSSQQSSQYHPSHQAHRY
Sequence of Cyclin-dependent kinase 8 (P49336 whole entry): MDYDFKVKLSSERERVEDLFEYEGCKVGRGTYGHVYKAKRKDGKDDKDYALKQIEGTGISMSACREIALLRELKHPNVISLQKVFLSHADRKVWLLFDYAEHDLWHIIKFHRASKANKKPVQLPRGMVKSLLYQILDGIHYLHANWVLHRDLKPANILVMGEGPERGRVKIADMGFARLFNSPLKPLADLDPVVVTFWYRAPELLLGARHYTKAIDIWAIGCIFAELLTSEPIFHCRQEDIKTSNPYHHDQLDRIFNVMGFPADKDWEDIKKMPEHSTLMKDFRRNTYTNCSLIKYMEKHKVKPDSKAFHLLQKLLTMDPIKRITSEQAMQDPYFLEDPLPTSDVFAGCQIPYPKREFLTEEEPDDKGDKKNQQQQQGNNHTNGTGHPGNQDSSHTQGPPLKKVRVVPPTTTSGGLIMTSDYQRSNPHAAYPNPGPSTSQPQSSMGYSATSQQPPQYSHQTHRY
Sequence of Cyclin-C (Homo sapiens) (P24863 whole entry): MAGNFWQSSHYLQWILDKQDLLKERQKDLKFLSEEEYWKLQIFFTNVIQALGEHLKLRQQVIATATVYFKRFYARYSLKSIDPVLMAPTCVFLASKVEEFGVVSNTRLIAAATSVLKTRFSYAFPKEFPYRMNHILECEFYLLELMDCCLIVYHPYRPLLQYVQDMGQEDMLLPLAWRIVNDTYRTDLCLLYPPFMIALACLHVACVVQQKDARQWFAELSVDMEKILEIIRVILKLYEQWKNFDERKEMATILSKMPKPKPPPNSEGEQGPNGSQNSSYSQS
Sequence of Cyclin-A2 (Homo sapiens) (P20248 whole entry): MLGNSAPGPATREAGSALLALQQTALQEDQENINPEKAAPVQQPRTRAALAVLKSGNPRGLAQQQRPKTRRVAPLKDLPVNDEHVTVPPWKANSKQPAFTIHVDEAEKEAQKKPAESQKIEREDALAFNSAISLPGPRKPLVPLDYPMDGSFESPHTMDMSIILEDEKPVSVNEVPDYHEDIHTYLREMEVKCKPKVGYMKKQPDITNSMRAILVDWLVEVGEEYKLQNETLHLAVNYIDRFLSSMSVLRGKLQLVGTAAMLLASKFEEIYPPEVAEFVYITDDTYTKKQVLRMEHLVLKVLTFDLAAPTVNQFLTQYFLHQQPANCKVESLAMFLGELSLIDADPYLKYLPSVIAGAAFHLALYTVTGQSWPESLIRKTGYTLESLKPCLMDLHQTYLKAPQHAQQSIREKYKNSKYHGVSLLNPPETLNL
Sequence of Cyclin-K (Homo sapiens) (O75909 whole entry): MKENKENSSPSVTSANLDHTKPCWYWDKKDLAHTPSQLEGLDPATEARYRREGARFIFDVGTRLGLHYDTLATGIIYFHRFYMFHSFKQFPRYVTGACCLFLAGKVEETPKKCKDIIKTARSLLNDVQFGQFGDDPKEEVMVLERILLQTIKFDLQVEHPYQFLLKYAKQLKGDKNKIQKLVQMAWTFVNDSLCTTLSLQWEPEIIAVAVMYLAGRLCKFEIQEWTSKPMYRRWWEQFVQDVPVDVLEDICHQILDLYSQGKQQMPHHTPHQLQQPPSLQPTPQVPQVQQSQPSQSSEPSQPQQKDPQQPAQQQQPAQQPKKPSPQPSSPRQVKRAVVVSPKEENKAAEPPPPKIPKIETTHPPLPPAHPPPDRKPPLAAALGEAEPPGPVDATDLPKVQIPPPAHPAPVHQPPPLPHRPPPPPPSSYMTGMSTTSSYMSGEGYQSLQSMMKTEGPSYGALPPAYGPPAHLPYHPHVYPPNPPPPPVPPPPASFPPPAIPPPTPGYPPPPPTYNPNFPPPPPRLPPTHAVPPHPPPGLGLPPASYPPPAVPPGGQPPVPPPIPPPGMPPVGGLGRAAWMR
Sequence of G2/mitotic-specific cyclin-B1 (Homo sapiens) (P14635 whole entry): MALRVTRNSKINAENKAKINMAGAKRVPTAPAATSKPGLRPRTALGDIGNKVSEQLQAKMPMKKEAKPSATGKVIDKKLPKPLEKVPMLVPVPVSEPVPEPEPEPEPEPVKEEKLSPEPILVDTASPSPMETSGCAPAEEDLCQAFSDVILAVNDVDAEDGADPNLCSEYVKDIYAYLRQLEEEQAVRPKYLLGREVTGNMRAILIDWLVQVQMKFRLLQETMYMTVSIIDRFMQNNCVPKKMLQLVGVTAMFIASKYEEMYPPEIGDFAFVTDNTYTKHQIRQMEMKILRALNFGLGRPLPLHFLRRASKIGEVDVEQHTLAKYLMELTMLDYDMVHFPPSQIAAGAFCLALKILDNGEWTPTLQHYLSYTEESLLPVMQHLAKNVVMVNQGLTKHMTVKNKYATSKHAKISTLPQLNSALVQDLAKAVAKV
Sequence of Cyclin-dependent kinase 9 (Homo sapiens) (P50750 whole entry): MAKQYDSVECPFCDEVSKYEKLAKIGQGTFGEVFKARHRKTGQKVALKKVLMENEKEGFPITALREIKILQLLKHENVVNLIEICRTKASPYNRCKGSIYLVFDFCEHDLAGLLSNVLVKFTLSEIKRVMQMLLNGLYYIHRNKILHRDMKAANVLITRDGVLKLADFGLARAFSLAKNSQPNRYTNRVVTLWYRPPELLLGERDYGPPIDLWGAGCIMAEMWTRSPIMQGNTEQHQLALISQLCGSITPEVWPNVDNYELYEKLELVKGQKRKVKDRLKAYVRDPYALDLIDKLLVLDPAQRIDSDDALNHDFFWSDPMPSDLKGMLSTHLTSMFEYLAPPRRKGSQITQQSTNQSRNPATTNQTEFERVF
Sequence of Cyclin-dependent kinase 1 (Homo sapiens) (P06493 whole entry, looked up): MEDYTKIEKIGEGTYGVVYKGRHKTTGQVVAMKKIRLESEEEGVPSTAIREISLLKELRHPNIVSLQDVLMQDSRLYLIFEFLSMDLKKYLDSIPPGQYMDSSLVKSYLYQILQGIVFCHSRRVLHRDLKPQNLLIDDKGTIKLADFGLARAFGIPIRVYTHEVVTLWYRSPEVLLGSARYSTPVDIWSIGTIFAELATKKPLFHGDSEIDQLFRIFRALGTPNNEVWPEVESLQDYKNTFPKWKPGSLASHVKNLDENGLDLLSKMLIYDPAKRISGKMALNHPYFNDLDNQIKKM

## O=C(Cn1cc(-c2ccc(-c3cncc4ccccc34)cc2)cn1)N1CCN(CCCC23CC4CC(CC(C4)C2)C3)CC1
[1]
  Activity: inactive
[2]
  Activity: Active
Cyclin-A2 (Homo sapiens)
  Activity: inactive
[3]
  Activity: Active
[4]
  Activity: inactive
[5]
  Activity: Active
[6]
  Activity: inactive
[7]
  Activity: Tde
MDA-MB-231
  Activity: Active
[8]
  Activity: inactive
Cyclin-C (Homo sapiens)
  Activity: Active
Cyclin-K (Homo sapiens)
  Activity: inactive
[9]
  Activity: Dose-Dependent Effect
[10]
  Activity: Tde
[11]
  Activity: inactive
[12]
  Activity: Dose-Dependent Effect
[13]
  Activity: inactive
[14]
  Activity: Active
[15]
  Activity: inactive
[16]
  Activity: Active
MDA-MB-468 [17]
  inhibition: Active
[18]
  Activity: inactive
[19]
  Activity: inactive
[20]
  Activity: Active
[21]
  Activity: Active
MDA-MB-468 [22]
  Activity: Active
[23]
  Activity: inactive
